Like-named read-outs stand apart in the source and are kept apart here. Marks after values point to notes of the source that are not given here.
Molecular target: HIV-1 protease (Human immunodeficiency virus type 1 group M subtype B, UniProt P04585)
Test: Fluorescence HIV-1 Protease Inhibitor Assay (Pandex)
Format: biochemical
Set-up: made in house; host or cells: E. coli K12 L507/pHP10D (NRRL B-18560)
Experimental: A. Preparation of Protease and Gag Fractions
Lyophils of E. coli K12 L507/pHP10D were obtained from the Northern Regional Research Laboratory, Peoria, Ill. 61604, under the accession number NRRL B-18560 (deposited Nov. 14, 1989). The lyophils were decanted into tubes containing 10 ml LB medium (10 g Bacto-tryptone, 5 g Bacto-yeast extract, and 10 g aqueous sodium chloride per liter; the pH was adjusted to 7.5 and incubated at 32° C. overnight).
A small portion of the overnight culture was placed on LB-agar (LB medium with 15 g/L Bacto-agar) plates containing 12.5 micrograms/ml tetracycline in a manner so as to obtain a single colony isolate of E. coli K12 L507/pHP10D. The single colony obtained was inoculated into 10 ml of LB medium containing 12.5 micrograms/ml tetracycline and incubated overnight at 32° C. with vigorous shaking. The 10 ml overnight culture was inoculated into LB medium containing 12.5 micrograms/ml tetracycline and incubated at 32° C. with vigorous shaking until the culture reached mid-log phase. […]
3. Preparation of Protease Fraction
A culture of E. coli K12 L507/pHP10D was grown to mid-log phase at 32° C. in LB media containing 12.5 micrograms/ml tetracycline. The cultivation temperature was quickly elevated to 40° C. to induce gene expression, and the cells were allowed to grow for 2.5 hours at this temperature before the culture was quickly chilled on ice. The cells were centrifuged and the cell pellet was resuspended in 20 ml of 50 mmol MES buffer (pH 6.0) containing 1 mmol EDTA, 1 mmol DTT, 1 mmol PMSF and 10% glycerol (“Buffer A”). Cells were lysed by sonication using a Fischer Model 300 Dismembrator and a microtip probe. Following centrifugation at 27,000×g, the supernatant was diluted to a total volume of 60 ml with Buffer A and loaded onto a 2.0×19 cm QAE-Sepharose column (1 ml/min, 4° C.), that had been equilibrated in Buffer A. The column was washed isocratically for 180 min and then eluted with a gradient eluent of […] aqueous sodium chloride in Buffer A over 120 min. Enzymatic activity was measured by HPLC using the synthetic peptide Ser-Gln-Asn-Tyr-Pro-Ile-Val as described in Margolin et al., Biochem. Biophys. Res. Commun., 167, 554-560 (1990); the production of the p1 peptide (Ser-Gln-Asn-Tyr) was measured.
The active fractions were combined, adjusted to […] 1.2M in ammonium sulfate, and applied to a 2.0×18 cm hexyl agarose column that had been equilibrated in Buffer A containing 1.2M ammonium sulfate. The sample was loaded at a flow rate of 1 ml/min at 4° C., washed with the equilibration buffer for 240 min (1 ml/min) and then eluted using a reverse linear gradient of 1.2-0M ammonium sulfate in Buffer A for 120 min at the same flow rate. The column was then washed isocratically in Buffer A for 120 min.
The active fractions were combined, concentrated to 10 ml using an Amicon stirred cell with a YM-10 membrane and then applied to a MonoS cation exchange column (1.0×10 cm) that had been equilibrated in Buffer A. The sample was loaded at a flow rate of 1 ml/min at 25° C. After washing isocratically for 30 min, the protease was eluted using a linear gradient of 0-0.45M aqueous sodium chloride in Buffer A over 40 min. The column was washed isocratically in Buffer A containing 0.45M aqueous sodium chloride for 30 minutes.
The active fractions were combined and concentrated to 200 microliters using an Amicon stirred cell and a YM-10 membrane and then the protease was applied to a Superose 6 size exclusion column equilibrated in Buffer A containing 0.1M aqueous sodium chloride.

[1] = normalized to positive control (=1.0), * = a calculated average
[2] = normalized to positive control (=1.0), * = a calculated average, read-out: Fluorescence Assay IC50 in ng/mL (converted)
[3] = value as run, 35B value of the same run in footnote or parentheses, read-out: Pandex IC50 ng/ml (converted)
[4] = value as run, 35B value of the same run in footnote or parentheses

Row | Molecule | Fluorescence Assay IC50 [1] | IC50 [2] | other results
1 | Cc1c(N)cc(N)cc1C(=O)N[C@H](CSc1ccc2ccccc2c1)[C@H](O)Cc1ccccc1C(=O)NC(C)(C)C (relative stereo) [Example 53, [2′R-(2′R*,3′S*)]-N-t-Butyl-2-[2′-hydroxy-3′-naphth-2-ylthiomethyl-4′-aza-5′-oxo-5′-(2″-methyl-3″,5″-diaminophenyl)pentyl] benzamide] | 0.055 µg/mL |  | 
2 | CC(C)(C)NC(=O)c1ccccc1C[C@@H](O)[C@H](CSc1ccc2ccccc2c1)NC(=O)c1cccc2cnccc12 (relative stereo) [Example 57, [2′R-(2′R*,3′S*)]-N-t-Butyl-2-[2′-hydroxy-3′-naphth-2-ylthiomethyl-4′-aza-5′-oxo-5′-(isoquinolin-5″-yl)pentyl] benzamide] |  | 1.38 µM | 
3 | Cc1c(O)cccc1C(=O)N[C@H](CSc1ccc2ccccc2c1)[C@H](O)Cc1ccccc1C(=O)NC(C)(C)C (relative stereo) [Example 46, [2′R-(2′R*,3′S*)]-N-t-Butyl-2-[2′-hydroxy-3′-naphth-2-ylthiomethyl-4′-aza-5′-oxo-5′-(2″-methyl-3″-hydroxyphenyl)pentyl] benzamide] | 0.063 µg/mL |  | 
4 | CC(C)(C)NC(=O)C1CC2CCCCC2CN1CC(O)C(Cc1ccccc1)NC(=O)c1cc(O)cc(O)c1Cl (stereo not drawn) [Example 8, [3S-(3R*,4aR*,8aR*,2′S*,3′R*)]-2-[2′-Hydroxy-3′-phenylmethyl-4′-aza-5′-oxo-5′-(2″-chloro-3″,5″-dihydroxyphenyl)pentyl] decahydroisoquinoline-3-N-t-butylcarboxamide] |  | 0.0287 µM | IC50 [3]: 0.0101 µM
5 | CC(C)(C)NC(=O)c1ccccc1CC(O)C(CSc1ccc2ccccc2c1)NC(=O)c1cccc(Cl)c1Cl (stereo not drawn) [Example 54, [2′R-(2′R*,3′S*)]-N-t-Butyl-2-[2′-hydroxy-3′-naphth-2-ylthiomethyl-4′-aza-5′-oxo-5′-(2″,2″-dichlorophenyl)pentyl] benzamide] |  | 0.129 µM | 
6 | CC(C)(C)NC(=O)c1ccccc1C[C@@H](O)[C@@H](CSc1ccc2ccccc2c1)NC(=O)c1cccc(O)c1 (relative stereo) [Example 51, [2′R-(2′R*,3′S*)]-N-t-Butyl-2-[2′-hydroxy-3′-naphth-2-ylthiomethyl-4′-aza-5′-oxo-5′-(3″-hydroxyphenyl)pentyl] benzamide] | 0.5 µg/mL |  | 
7 | CC(C)(C)NC(=O)c1ccccc1C[C@@H](O)[C@H](CSc1ccc2ccccc2c1)NC(=O)c1cccc2c1CCCN2 (relative stereo) [Example 64, [2′R-(2′R*,3′S*)]-N-t-Butyl-2-[2′-hydroxy-3′-naphth-2-ylthiomethyl-4′-aza-5′-oxo-5′-(1″,2″,3″,4″-tetrahydroquinolin-5″-yl)pentyl] benzamide] |  | 0.194 µM | 
8 | CC(C)(C)NC(=O)c1ccccc1C[C@@H](O)[C@H](Cc1ccccc1)NC(=O)c1cccc2c1CCNC2 [Example 60, [2′R-(2′R*,3′S*)]-N-t-Butyl-2-[2′-hydroxy-3′-phenylmethyl-4′-aza-5′-oxo-5′-(1″,2″,3″,4″-tetrahydroisoquinolin-5″-yl)pentyl] benzamide] |  | 0.801 µM | 
9 | Cc1c(O)cccc1C(=O)N[C@@H](Cc1ccccc1)[C@H](O)CN1CCC[C@H]1C(=O)NC(C)(C)C (relative stereo) [Example 4, [2S-(2R*,2′S*,3′R*)]-1-[2′-Hydroxy-3′-phenylmethyl-4′-aza-5′-oxo-5′-(2″-methyl-3″-hydroxyphenyl)pentyl] pyrrolidine-2-N-t-butylcarboxamide] |  |  | Fluorescence Assay IC50 in ng/mL [1]: 1425* ng/mL
10 | [3S-(3R*,4aR*,8aR*,2′S*,3′S*)]-2-[2′-Hydroxy-3′-phenylthiomethyl-4′-aza-5′-oxo-5′-[6″-methyl-(1″,2″,3″,4″-tetrahydroquinolin-5″-yl)]pentyl] decahydroisoquinoline-3-N-t-butylcarboxamide [Example 38] | 0.0152 µg/mL |  | Pandex IC50 ng/ml [4]: 35^e ng/ml
11 | CC(C)(C)NC(=O)[C@@H]1C[C@@H]2CCCC[C@@H]2CN1C[C@@H](O)[C@H](Cc1ccccc1)NC(=O)C1CCS(=O)(=O)C1 (relative stereo) [Example 88, [3S-(3R*, 4aR*, 8aR*, 2′S*, 3′R*)]-2-[2′-Hydroxy-3′-phenylmethyl-4′-aza-5′-oxo-5′-(tetrahydrothieno-3″-yl-1″,1″-dioxide)pentyl]-decahydroisoquinoline-3-N-t-butyl carboxamide] |  |  | Pandex % at 20 ng/ml (at 20 ng/ml): 28%
12 | Cc1c(O)cccc1C(=O)N[C@H](CSc1ccc2ccccc2c1)[C@H](O)Cc1ccc2ccccc2c1C(=O)NC(C)(C)C (relative stereo) [Example 48, [2′R-(2′R*,3′S*)]-N-t-Butyl-2-[2′-hydroxy-3′-naphth-2-ylthiomethyl-4′-aza-5′-oxo-5′-(2″-methyl-3″-hydroxyohenyl)pentyl]-1-naphthylamide] | 0.177 µg/mL |  | 
13 | Cc1ccccc1C(=O)N[C@H](CSc1ccc2ccccc2c1)[C@H](O)Cc1ccccc1C(=O)NC(C)(C)C (relative stereo) [Example 52, [2′R-(2′R*,3′S*)]-N-t-Butyl-2-[2′-hydroxy-3′-naphth-2-ylthiomethyl-4′-aza-5′-oxo-5′-(2″-methylphenyl)pentyl] benzamide] | 0.281 µg/mL |  | 
14 | CC(=O)Oc1cccc(C(=O)N[C@@H](Cc2ccccc2)[C@H](O)CN2C[C@H]3CCCC[C@H]3C[C@H]2C(=O)NC(C)(C)C)c1C (relative stereo) [Example 82, [3S-(3R*, 4aR*, 8aR*, 2′S*, 3′R*)]-2-[2′-Hydroxy-3′-phenylmethyl-4′-aza-5′-oxo-5′-(2″-methyl-3″-(acetyl)hydroxyphenyl)pentyl]decahydroisoquinoline-3-N-t-butyl carboxamide] |  |  | IC50 [3]: 0.325 µM
15 | Cc1c(C(=O)N[C@@H](Cc2ccccc2)[C@H](O)CN2C[C@H]3CCCC[C@H]3C[C@H]2C(=O)NC(C)(C)C)cc[nH]c1=O (relative stereo) [Example 16, [3S-(3R*,4aR*,8aR*,2′S*,3′R*)]-2-[2′-Hydroxy-3′-phenylmethyl-4′-aza-5′-oxo-5′-(2″-oxo-3″-methyl-pyrid-4″-yl)pentyl] decahydroisoquinoline-3-N-t-butylcarboxamide] | 0.329 µg/mL |  | Pandex IC50 ng/ml [4]: 125^e ng/ml
16 | Cc1c(N)cc(N)cc1C(=O)NC(Cc1ccccc1)C(O)CN1CC2CCCCC2CC1C(=O)NC(C)(C)C (stereo not drawn) [Example 9, [3S-(3R*,4aR*,8aR*,2′S*,3′R*)]-2-[2′-Hydroxy-3′-phenylmethyl-4′-aza-5′-oxo-5′-(2″-methyl-3″,5″-diaminophenyl)pentyl] decahydroisoquinoline-3N-t-butylcarboxamide] |  | 0.0309 µM | IC50 [3]: 0.0959 µM
17 | [2′R-(2′R*,3′S*)]-N-t-Butyl-2-[2′-hydroxy-3′-naphth-2-ylthiomethyl-4′-aza-5′-oxo-5′-(1″-N(methyl)indol-4″-yl)pentyl] benzamide [Example 69] |  |  | Fluorescence Assay IC35 (concentration of the inhibitor not increased above 15 μg/mL): IC35(15000)** ng/mL
18 | Cc1ccc(N)cc1C(=O)N[C@H](CSc1ccc2ccccc2c1)[C@H](O)Cc1ccccc1C(=O)NC(C)(C)C (relative stereo) [Example 47, [2′R-(2′R*,3′S*)]-N-t-Butyl-2-[2′-hydroxy-3′-naphth-2-ylthiomethyl-4′-aza-5′-oxo-5′-(2″-methyl-5″-aminophenyl)pentyl] benzamide] | 0.091 µg/mL |  | 
